Test results from US5064853A, “4(2-indolyl)2-amino-pentanedioic acids and cholecyostokinin use thereof” (Roussel Uclaf, priority 1989, dated 1991).

Legend:
[1] = target: T1, Central CCK receptors (Rattus norvegicus, UniProt P30553); test: Central receptors: 3H CCK8 binding to rat cortex homogenate; conditions: 0.5 nM 3H CCK8, 25° C., 30 minutes, read-out: Central CCK IC50: concentration necessary to inhibit the fixed specific radioactivity by 50%
T1 construct: The cortices of 20 male rats weighing 150 to 200 g were removed and were ground up with a Polytron; from tissue; host or cells: rat cerebral cortex membrane homogenate
T1 sequence (P30553 1-452): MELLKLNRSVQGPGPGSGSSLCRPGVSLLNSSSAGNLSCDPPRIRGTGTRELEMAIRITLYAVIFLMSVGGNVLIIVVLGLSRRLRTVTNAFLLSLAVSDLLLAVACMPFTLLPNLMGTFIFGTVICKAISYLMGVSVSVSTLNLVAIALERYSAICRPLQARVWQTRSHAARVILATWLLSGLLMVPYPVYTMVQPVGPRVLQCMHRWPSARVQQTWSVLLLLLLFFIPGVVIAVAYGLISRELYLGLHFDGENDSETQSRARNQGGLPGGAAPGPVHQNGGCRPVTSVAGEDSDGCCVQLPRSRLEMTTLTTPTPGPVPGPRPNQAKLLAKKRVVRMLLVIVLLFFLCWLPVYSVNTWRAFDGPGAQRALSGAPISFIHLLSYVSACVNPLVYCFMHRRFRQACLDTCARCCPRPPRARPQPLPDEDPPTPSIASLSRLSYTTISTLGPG
Experimental: The cortices of 20 male rats weighing 150 to 200 g were removed and were ground up with a Polytron in 0.32M sucrose. After centrifuging, the supernatant was collected and centrifuged. The residue was suspended in 120 ml of Hepes buffer, pH 7.4, (Hepes 10 mM, NaCl 130 mM, MgCl2, 6H2 O 5 mM, bacitracine 250 mg/liter, PMSF 1 mg/liter), and re-centrifuged. The residue was taken up in 120 ml of Hepes buffer pH 7.4, and recentrifuged at 30,000 g for 30 minutes. The residue was then taken up in 500 ml of Hepes buffer pH 7.4, which enabled 240 aliquots of 2 ml of homogenate to be obtained. The incubation was carried out at 25° C. for 30 minutes in the presence of 0.5 nM of 3H CCK8 and the product to be tested (10,000 micromoles for 1 dose, or with a range of 7 doses) or cold CCK8 (10^-6 M), which was the reference product. After the homogenate aliquots were returned to 0° C., they were filtered with Whatman GF/B filters and the filtrates were washed with 3×5 ml of a Tris HCl 50 mM buffer, pH 7.4. The results are expressed in IC50 : concentration necessary to inhibit the fixed specific radioactivity by 50% in the Table below.

[2] = target: T2, Peripheral CCK receptors (Rattus norvegicus, UniProt P30551); test: Peripheral receptors: 3H CCK8 binding to rat pancreas homogenate; conditions: 3H CCK8, 25° C., 60 minutes, read-out: Peripheral CCK IC50: concentration necessary to inhibit the fixed specific radioactivity by 50%
T2 construct: The pancreases of 3 male rats weighing 150-200 g were removed and ground with a Polytron; from tissue; host or cells: rat pancreas membrane homogenate
T2 sequence (P30551 1-444): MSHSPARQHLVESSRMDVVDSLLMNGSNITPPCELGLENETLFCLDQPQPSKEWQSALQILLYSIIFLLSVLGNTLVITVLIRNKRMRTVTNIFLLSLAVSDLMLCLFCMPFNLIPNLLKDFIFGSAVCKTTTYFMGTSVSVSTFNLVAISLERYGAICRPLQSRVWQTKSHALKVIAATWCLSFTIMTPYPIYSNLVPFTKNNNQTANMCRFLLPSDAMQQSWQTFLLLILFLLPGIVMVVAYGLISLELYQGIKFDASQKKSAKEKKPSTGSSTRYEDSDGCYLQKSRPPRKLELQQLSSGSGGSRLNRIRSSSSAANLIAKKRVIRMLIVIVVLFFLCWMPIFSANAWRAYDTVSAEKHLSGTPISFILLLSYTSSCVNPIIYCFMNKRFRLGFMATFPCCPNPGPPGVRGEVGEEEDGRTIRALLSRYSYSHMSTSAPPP
Experimental: The pancreases of 3 male rats weighing 150-200 g were removed and ground with a Polytron (4 grindings, speed 3, with an interval of 10 seconds between grindings) and the homogenate was filtered over a gauze, then centrifuged at 30,000 g for 30 minutes. The residue obtained was taken up in 400 volumes (.perspectiveto.600 ml) of Tris 50 mM HCl buffer, pH 7.4, containing 2 g/liter of BSA, 0.1 mM of bacitracin, 5 mM of MgCl2 and 5 mM of dithiothreitol. 2 ml of homogenate aliquots were incubated at 25° C. for 60 minutes in the presence of […] 3H CCK8 and the product to be tested (10,000 micromoles for 1 dose or with a range of 7 doses) and cold CCK8 (10^-6 M) which was the reference product. After returning to 0° C., the aliquots were filtered with Whatman GF/B filters having been previously washed in a 0.05% solution of polyethyleneimine. The filtrate was washed with 3×5 ml of Tris HCl 50 mM buffer, pH 7.4. The results are expressed in IC50 : concentration necessary to inhibit the fixed specific radioactivity by 50%. (IC50 in nanomoles).

[3] = test system: alimentary intake of a rat; test: Action on the alimentary intake of a rat; type: in vivo; conditions: 10 mg/kg intra-peritoneally, consumption monitored every hour for 5 hours
Experimental: The tests were carried out on groups of 5 rats weighing 250±10 g under the following conditions: the animals were placed individually in cages having a feeding trough described by FREGLY (J. Appln. Physiol., 1960, Vol. 15, p. 539) which had the advantage of avoiding the wastage of food presented when using powdered fodder. The rats were accustomed to taking their daily ration over 5 consecutive hours, drinking water being offered ad libitum. The amounts of food ingested were determined individually by weighing the feeding troughs and the consumptions were monitored every hour for 5 hours after the administration of 10 mg/kg of the compound intra-peritoneally. The amounts consumed were expressed in g/100 g of body weight per hour and the averages were compared with those obtained from the control animals by a DUNNET test.

IC50 [1] [nM] | IC50 [2] [nM] | Compound | reduction of alimentary consumption relative to control animals [3]
700 | 53 | Cc1ccc(C(NC(=O)[C@H](CCC(=O)O)NC(=O)c2cc3ccccc3[nH]2)c2ccc(C)cc2)cc1 [Example 2, (S)-4-[[(1H-indol-2-yl)-carbonyl]-amino]-5-[[bis-(4-methylphenyl)-methyl]-amino]-5-oxo pentanoic acid] | 15%
10000 | 96 | O=C(O)CC[C@H](NC(=O)c1cc2ccccc2[nH]1)C(=O)NC(c1ccc(Cl)cc1)c1ccc(Cl)cc1 [Example 4, (S)-5-[[bis-(4-chlorophenyl)-methyl]-amino]-5-oxo-4-[[(1H-indol-2-yl)-carbonyl]-amino]-pentanoic acid] | –
682 | 32 | COc1ccccc1C(NC(=O)[C@H](CCC(=O)O)NC(=O)c1cc2ccccc2[nH]1)c1ccccc1 (stereo partly drawn) [Example 9, (4S)-4-[[(1H-indol-2-yl)-carbonyl]-amino]-5-[[(2-methoxyphenyl)-benzyl]-amino]-5-oxo pentanoic acid] | more than 50%
2660 | 1660 | O=C(O)CC[C@H](NC(=O)c1cc2ccccc2[nH]1)C(=O)NC1c2ccccc2CCc2ccccc21 [Example 13, (S)-5-[(10,11-dihydro-dibenzo-[a,d]-cyclohepten-5-yl)-amino]-4-[[(1H-indol-2-yl)-carbonyl]-amino]-5-oxo pentanoic acid] | –
